Laboratory results as given in paper PMC2600811 (Neuropharmacology, 2008).

What was measured:
[1] = biological target: T1, rat mGluR1a (Rattus norvegicus, UniProt P23385); experiment: Calcium mobilization; format: cell-based; conditions: fixed 1 µM compound, 10 min pre-incubation
[2] = biological target: mGluR1a (Rattus norvegicus, UniProt P23385); experiment: ERK1/2 phosphorylation assay; conditions: for P-ERK1/2 response as % of the response to a maximal concentration of glutamate: 1 µM PAM, no exogenously added agonist
Sequence of mGluR1a (P23385 19-1199): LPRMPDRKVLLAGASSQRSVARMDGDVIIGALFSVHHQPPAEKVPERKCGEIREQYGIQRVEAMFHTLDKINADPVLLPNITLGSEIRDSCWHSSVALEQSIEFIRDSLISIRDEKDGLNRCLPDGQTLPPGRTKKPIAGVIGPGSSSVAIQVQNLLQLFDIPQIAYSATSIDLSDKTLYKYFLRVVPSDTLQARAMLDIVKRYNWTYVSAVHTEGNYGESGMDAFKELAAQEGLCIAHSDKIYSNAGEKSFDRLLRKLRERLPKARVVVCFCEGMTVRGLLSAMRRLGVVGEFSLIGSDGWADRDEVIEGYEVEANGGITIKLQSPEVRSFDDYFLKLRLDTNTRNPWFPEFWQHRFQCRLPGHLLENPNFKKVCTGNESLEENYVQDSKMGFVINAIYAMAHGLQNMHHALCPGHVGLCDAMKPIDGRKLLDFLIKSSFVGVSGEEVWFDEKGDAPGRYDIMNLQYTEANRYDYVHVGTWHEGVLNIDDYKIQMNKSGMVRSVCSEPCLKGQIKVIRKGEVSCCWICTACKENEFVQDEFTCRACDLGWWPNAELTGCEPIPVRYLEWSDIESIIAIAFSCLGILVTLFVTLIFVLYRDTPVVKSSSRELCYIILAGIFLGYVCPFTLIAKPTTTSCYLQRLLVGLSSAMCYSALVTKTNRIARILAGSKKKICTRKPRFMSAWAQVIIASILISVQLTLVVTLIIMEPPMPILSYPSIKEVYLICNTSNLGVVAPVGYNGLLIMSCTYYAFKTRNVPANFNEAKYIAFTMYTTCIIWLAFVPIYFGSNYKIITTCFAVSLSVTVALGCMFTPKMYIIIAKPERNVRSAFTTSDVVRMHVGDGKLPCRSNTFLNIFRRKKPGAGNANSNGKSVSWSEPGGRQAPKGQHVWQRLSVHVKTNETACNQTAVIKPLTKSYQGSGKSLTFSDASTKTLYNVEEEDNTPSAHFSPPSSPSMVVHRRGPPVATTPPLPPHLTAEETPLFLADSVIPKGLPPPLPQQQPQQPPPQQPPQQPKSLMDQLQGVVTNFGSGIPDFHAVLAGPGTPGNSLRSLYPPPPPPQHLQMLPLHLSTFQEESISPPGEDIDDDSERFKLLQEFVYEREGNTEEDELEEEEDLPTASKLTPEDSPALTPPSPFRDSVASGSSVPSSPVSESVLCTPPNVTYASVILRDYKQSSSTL

[3] = biological target: T1, rat mGluR1a; conditions: 500 nM compound, absence of glutamate
[4] = biological target: T2, rat mGlu1a receptor (Rattus norvegicus, UniProt P23385); conditions: saturation binding, BHK-mGluR1a membranes
T2 sequence (P23385 19-1199): as above

[5] = biological target: T2, rat mGlu1a receptor; experiment: biochemical

T1 sequence (P23385 19-1199): as above

| leftward shift of the glutamate concentration-response curve (calcium) [1] | EC50 [2] [nM] | P-ERK1/2 response as % of the response to a maximal concentration of glutamate [2] [%] | increase of basal cAMP accumulation [3] | Bmax [4] | Kd [5] [nM] | Structure (SMILES) | effect on basal ERK1/2 phosphorylation ([2]; antagonist alone (100 nM R214127 or 10 µM LY341495)) |
| --- | --- | --- | --- | --- | --- | --- | --- |
| ~4.5 fold | 163 ± 44.8 | 120.4 ± 1.9 | 8% | – | – | Cc1ccc(S(=O)(=O)N2CCC[C@H]2c2ccc(F)cc2)cc1 (racemic) [Ro 67-7476, (S)-2-(4-fluorophenyl)-1-(toluene-4-sulfonyl)pyrrolidine] | – |
| – | – | – | – | 3817 ± 226 fmol/mg of protein | 2.8 ± 0.3 | O=C(Cc1ccccc1)c1ccc2nc3c(cc2c1)CCCO3 [R214127, 1-(3,4-dihydro-2H-pyrano[2,3-b]quinolin-7-yl)-2-phenyl-1-ethanone] | does not effect basal ERK1/2 phosphorylation |
| approximately 2 fold | – | 119.5 ± 17.3 | approximately 7% | – | – | CCOC(=O)NC(=O)C(c1ccccc1)c1ccccc1 [Ro 01-6128, ethyl diphenylacetylcarbamate] | – |
| ~15 fold | 9.2 ± 6.2 | 114.4 ± 29.0 | 30% | – | – | CCCCOC(=O)NC(=O)C1c2ccccc2Oc2ccccc21 [Ro 67-4853, butyl (9H-xanthene-9-carbonyl)carbamate] | – |
